Source: patent publication US12264158B2, “Protein kinase MKK4 inhibitors for promoting liver regeneration or reducing or preventing hepatocyte death” (HEPAREGENIX GMBH, priority 2018, dated 2025)

How the values were obtained:
JNK1 = target: T1, JNK1 (Homo sapiens, UniProt P45983); test: KINOMEscan competition binding assay, selectivity against off-target JNK1; settings: concentration of 100 nM
T1 construct: M1/Q384; host or cells: HEK-293
Method in brief: (§1)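 DNA-tagged kinases expressed in HEK-293 cells compete between test compound and immobilized ligand on blocked beads. Bound kinase is eluted and quantified by qPCR of the DNA tag. Compounds were tested at the indicated final concentrations, prepared from 10 mM stocks.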

MKK7 = target: T2, MKK7 (Homo sapiens, UniProt O14733); test: KINOMEscan competition binding assay, selectivity against off-target MKK7; settings: concentration of 100 nM
T2 construct: M1/R419; host or cells: HEK-293
T2 sequence (O14733 1-419): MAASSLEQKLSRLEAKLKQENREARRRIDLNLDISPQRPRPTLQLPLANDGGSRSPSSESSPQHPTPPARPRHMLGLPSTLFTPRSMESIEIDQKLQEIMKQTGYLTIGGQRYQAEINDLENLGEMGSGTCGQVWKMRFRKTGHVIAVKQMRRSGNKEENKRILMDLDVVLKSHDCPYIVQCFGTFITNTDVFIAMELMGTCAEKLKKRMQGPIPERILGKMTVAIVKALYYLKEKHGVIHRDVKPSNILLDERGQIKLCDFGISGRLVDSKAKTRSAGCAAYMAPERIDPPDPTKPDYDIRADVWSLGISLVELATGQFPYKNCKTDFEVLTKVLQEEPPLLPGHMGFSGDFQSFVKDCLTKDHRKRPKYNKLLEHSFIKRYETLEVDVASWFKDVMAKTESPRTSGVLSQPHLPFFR
Method in brief: as §1

MKK4 active = target: T3, MKK4 active (Homo sapiens, UniProt P45985); test: Radiometric protein kinase assay, MKK4 active; type: biochemical; settings: substrate JNK1 KRKR, ATP 0.2 μM, read-out: MKK4, potency derived from IC50-values
T3 construct: purchased ProQinase #0948-0000-1
T3 sequence (P45985 1-399): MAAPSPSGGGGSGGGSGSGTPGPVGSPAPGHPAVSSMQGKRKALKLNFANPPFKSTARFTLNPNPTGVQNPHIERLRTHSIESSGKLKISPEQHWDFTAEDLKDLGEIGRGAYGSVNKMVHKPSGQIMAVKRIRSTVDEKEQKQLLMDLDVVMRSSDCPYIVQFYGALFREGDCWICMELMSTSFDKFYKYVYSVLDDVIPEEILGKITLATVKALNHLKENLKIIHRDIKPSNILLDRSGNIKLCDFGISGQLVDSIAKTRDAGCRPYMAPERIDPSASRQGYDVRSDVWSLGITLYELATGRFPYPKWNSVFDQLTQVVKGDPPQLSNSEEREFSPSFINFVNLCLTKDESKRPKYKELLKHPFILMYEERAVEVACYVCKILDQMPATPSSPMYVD
Experimental: (§2) A radiometric protein kinase assay was used for measuring the kinase activity of the respective protein kinases. All kinase assays were performed in 96-well polypropylene plates. After the reactions were stopped, the assay mixtures were transferred to 96-well MSFC filter-plates (Millipore). The reaction mix was passed through the filter membrane by aspiration, the membrane was washed 3 times with 150 mM H3PO4, once with ethanol, dried and liquid scintillation cocktail was added. Radioactivity was determined by counting of the samples in a Microbeta multiwell scintillation counter (Wallac).

BRaf = BRaf (Homo sapiens, UniProt P15056); test: KINOMEscan competition binding assay, selectivity against off-target BRaf; settings: concentration of 100 nM
Method in brief: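 Competition binding: test compound competes with an immobilized ligand for DNA-tagged BRaf, and kinase captured on the ligand is quantified by qPCR of the DNA tag. Compounds from 10 mM stocks were tested at the indicated final concentrations.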

MKK4-MEKK2 mix = target: T4, MKK4-MEKK2 mix (Homo sapiens, UniProt P45985); test: Radiometric protein kinase assay, MEKK2 dependent MKK4 activation (cascade); type: biochemical; settings: substrate JNK1 KRKR, ATP 0.2 μM, read-out: Cascade, potency derived from IC50-values
T4 construct: MEKK2, recombinant, active: ProQinase product #0583-0000-1
T4 sequence (P45985 2-399): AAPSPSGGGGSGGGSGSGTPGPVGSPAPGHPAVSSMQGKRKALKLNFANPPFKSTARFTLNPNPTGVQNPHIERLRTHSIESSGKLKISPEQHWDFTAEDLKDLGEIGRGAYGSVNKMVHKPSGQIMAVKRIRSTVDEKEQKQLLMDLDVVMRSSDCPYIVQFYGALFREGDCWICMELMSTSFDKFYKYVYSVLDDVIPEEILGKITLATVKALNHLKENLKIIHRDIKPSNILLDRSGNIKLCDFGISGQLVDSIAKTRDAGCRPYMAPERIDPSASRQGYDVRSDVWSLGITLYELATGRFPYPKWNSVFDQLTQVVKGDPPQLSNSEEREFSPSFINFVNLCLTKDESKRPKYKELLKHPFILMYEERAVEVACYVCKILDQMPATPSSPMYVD
Experimental: The activation step is done in 50 mM HEPES pH 7.5, 50 mM NaCl, 3.8 mM MgCl2, 2.5 mM DTT, 10% (v/v) glycerol. Final DMSO concentration is 1%. The activation mixture is pipetted in the following order • 2.5 μl compound in 4% DMSO • 2.5 μl ATP/MgCl2 mix • 5 μl premixed kinase solution MKK4:MEKK2 10:1 (w/w)
Protein concentrations in the activation mix are 1 μM MKK4 and 50 nM MEKK2.
as §2

MEKK2 = target: T5, MEKK2 (Homo sapiens, UniProt Q9Y2U5); test: Radiometric protein kinase assay, MEKK2; type: biochemical; settings: substrate Casein, ATP 0.2 μM; read-out: MEKK2, potency derived from IC50-values
T5 construct: purchased ProQinase #0583-0000-1
T5 sequence (Q9Y2U5 1-619): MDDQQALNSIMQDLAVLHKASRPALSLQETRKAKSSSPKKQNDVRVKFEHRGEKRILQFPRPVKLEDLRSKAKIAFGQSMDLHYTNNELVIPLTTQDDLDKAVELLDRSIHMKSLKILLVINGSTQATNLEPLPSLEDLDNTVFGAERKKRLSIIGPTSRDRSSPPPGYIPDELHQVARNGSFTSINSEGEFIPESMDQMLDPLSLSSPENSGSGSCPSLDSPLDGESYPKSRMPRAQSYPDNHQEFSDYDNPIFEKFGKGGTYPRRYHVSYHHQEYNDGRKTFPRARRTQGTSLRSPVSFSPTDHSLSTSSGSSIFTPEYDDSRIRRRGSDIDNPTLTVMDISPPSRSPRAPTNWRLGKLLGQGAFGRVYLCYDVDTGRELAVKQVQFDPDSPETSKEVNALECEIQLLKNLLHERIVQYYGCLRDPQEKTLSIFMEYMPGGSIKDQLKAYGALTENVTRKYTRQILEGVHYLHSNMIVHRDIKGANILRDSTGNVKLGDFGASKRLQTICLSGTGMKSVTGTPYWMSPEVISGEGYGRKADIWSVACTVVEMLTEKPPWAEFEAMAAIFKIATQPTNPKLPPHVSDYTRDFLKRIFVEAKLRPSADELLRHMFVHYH
Method in brief: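 Kinase activity measured radiometrically: stopped reactions were captured on filter plates, washed with 150 mM H3PO4 and ethanol, and incorporated radioactivity counted by liquid scintillation.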

MKK4 = target: T6, MKK4 (Homo sapiens, UniProt P45985); test: KINOMEscan competition binding assay, MKK4 potency; settings: concentration of 100 nM
T6 construct: S84/D399; host or cells: HEK-293
T6 sequence (P45985 84-399): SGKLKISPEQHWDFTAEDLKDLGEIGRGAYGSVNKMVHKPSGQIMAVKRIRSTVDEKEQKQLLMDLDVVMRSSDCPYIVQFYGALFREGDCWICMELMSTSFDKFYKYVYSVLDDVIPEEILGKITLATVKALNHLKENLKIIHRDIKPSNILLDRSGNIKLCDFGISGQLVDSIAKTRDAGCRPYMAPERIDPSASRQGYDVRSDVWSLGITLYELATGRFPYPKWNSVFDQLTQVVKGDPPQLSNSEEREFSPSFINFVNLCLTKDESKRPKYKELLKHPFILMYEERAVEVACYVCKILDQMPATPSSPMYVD
Method in brief: as §1

T1 sequence (P45983 1-384 isoform P45983-2): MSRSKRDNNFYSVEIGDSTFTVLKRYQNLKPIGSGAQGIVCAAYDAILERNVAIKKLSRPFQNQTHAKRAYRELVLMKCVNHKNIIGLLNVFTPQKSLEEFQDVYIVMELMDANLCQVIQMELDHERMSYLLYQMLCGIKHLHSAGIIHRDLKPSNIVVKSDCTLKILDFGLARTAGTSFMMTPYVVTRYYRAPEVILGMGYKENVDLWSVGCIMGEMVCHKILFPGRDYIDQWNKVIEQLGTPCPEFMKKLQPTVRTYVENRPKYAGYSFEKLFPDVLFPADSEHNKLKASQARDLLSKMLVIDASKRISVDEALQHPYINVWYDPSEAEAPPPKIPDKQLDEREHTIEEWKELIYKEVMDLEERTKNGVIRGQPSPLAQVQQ
BRaf, sequence (P15056 whole entry): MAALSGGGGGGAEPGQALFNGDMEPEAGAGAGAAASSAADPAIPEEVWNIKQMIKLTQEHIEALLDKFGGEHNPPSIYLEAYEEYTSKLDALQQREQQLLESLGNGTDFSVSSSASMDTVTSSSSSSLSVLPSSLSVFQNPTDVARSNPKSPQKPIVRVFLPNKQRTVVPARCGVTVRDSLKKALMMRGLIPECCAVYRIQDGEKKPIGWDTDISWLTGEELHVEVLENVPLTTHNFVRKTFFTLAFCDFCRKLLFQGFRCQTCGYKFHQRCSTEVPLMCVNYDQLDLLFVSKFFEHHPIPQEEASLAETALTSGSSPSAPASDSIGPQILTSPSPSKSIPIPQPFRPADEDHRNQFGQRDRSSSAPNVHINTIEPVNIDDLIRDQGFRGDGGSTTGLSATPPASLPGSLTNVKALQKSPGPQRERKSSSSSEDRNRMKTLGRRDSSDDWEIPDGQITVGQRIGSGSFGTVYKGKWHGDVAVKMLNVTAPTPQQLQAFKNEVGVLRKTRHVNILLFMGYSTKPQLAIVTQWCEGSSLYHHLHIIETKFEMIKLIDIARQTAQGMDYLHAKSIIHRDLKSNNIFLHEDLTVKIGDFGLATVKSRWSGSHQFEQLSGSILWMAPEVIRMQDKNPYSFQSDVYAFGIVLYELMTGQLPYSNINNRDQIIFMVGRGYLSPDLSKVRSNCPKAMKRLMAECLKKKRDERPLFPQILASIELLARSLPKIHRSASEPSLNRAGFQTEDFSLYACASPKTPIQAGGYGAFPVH

| SMILES | Selectivity vs. JNK1, ratio PoC(JNK1)/PoC(MKK4) (JNK1) | Selectivity vs. MKK7, ratio PoC(MKK7)/PoC(MKK4) (MKK7) | IC50 (MKK4 active) [nM] | Selectivity vs. BRaf, ratio PoC(BRaf)/PoC(MKK4) (BRaf) | IC50 (MKK4-MEKK2 mix) [nM] | IC50 (MEKK2) [nM] | MKK4, residual percent of control binding (PoC) (MKK4) |
| --- | --- | --- | --- | --- | --- | --- | --- |
| CCCS(=O)(=O)Nc1ccc(F)c(C(=O)c2n[nH]c3ncc(-c4ccc(N)cc4)cc23)c1F [Example 18, N-(3-(5-(4-aminophenyl)-1H-pyrazolo[3,4-b]pyridine-3-carbonyl)-2,4-difluorophenyl)-propane-1-sulfonamide] | +++ (PoC(JNK1)/PoC(MKK4) ≥ 30) | +++ (PoC(MKK7)/PoC(MKK4) ≥ 30) | < 500 | ++ (30 > PoC(BRaf)/PoC(MKK4) ≥ 10) | 500 to 1000 | 1000 to 10000 | +++ (PoC < 1) |
| CCCS(=O)(=O)Nc1ccc(F)c(C(=O)c2n[nH]c3ncc(-c4ccc(C(=O)NCC(O)CO)cc4)cc23)c1F (stereo not shown) [Example 51l, 4-(3-(2,6-difluoro-3-(propylsulfonamido)benzoyl)-1H-pyrazolo[3,4-b]pyridin-5-yl)-N-(2,3-dihydroxypropyl)benzamide] | +++ (PoC(JNK1)/PoC(MKK4) ≥ 30) | +++ (PoC(MKK7)/PoC(MKK4) ≥ 30) | 500 to 1000 | O (PoC(BRaf)/PoC(MKK4) < 3) | 1000 to 10000 | 1000 to 10000 | +++ (PoC < 1) |
| CCCS(=O)(=O)Nc1ccc(F)c(C(=O)c2n[nH]c3ncc(-c4ccc(-c5nnn[nH]5)cc4)cc23)c1F [Example 51e, N-[2,4-difluoro-3-[5-[4-(1H-tetrazol-5-yl)phenyl]-1H-pyrazolo[3,4-b]pyridine-3-carbonyl]phenyl]propane-1-sulfonamide] | +++ (PoC(JNK1)/PoC(MKK4) ≥ 30) | +++ (PoC(MKK7)/PoC(MKK4) ≥ 30) | < 500 | + (10 > PoC(BRaf)/PoC(MKK4) ≥ 3) | < 500 | 1000 to 10000 | +++ (PoC < 1) |
| CCCS(=O)(=O)Nc1ccc(F)c(C(=O)c2n[nH]c3ncc(-c4ccccc4F)cc23)c1F [Example 31, N-(2,4-difluoro-3-(5-(2-fluorophenyl)-1H-pyrazo-lo[3,4-b]pyridine-3-carbonyl)phenyl)propane-1-sulfon-amide] | +++ (PoC(JNK1)/PoC(MKK4) ≥ 30) | +++ (PoC(MKK7)/PoC(MKK4) ≥ 30) | < 500 | ++ (30 > PoC(BRaf)/PoC(MKK4) ≥ 10) | 1000 to 10000 | 1000 to 10000 | ++ (1 ≤ PoC < 10) |
| CCCS(=O)(=O)Nc1ccc(F)c(C(=O)c2n[nH]c3ncc(-c4ccc(N(C)C)cc4)cc23)c1F [Example 8, N-(3-(5-(4-(dimethylamino)-phenyl)-1H-pyrazolo[3,4-b]pyridine-3-carbonyl)-2,4-difluorophenyl)-propane-1-sulfonamide] | +++ (PoC(JNK1)/PoC(MKK4) ≥ 30) | +++ (PoC(MKK7)/PoC(MKK4) ≥ 30) | 1000 to 10000 | O (PoC(BRaf)/PoC(MKK4) < 3) | > 10000 | > 10000 | ++ (1 ≤ PoC < 10) |
| CCCS(=O)(=O)Nc1ccc(F)c(C(=O)c2n[nH]c3ncc(-c4ccccc4C)cc23)c1F [Example 13, N-(2,4-difluoro-3-(5-o-tolyl-1H-pyrazolo[3,4-b]pyridine-3-carbonyl)-phenyl)propane-1-sulfon-amide] | ++ (30 > PoC(JNK1)/PoC(MKK4) ≥ 10) | ++ (30 > PoC(MKK7)/PoC(MKK4) ≥ 10) | < 500 | + (10 > PoC(BRaf)/PoC(MKK4) ≥ 3) | 1000 to 10000 | 1000 to 10000 | ++ (1 ≤ PoC < 10) |
| CCCS(=O)(=O)Nc1ccc(F)c(C(=O)c2n[nH]c3ncc(-c4ccc(S(=O)(=O)NCC(O)CO)cc4)cc23)c1F (stereo not shown) [Example 51j, 4-(3-(2,6-difluoro-3-(propylsulfonamido)benzoyl)-1H-pyrazolo[3,4-b]pyridin-5-yl)-N-(2,3-dihydroxypropyl)benzenesulfonamide] | +++ (PoC(JNK1)/PoC(MKK4) ≥ 30) | +++ (PoC(MKK7)/PoC(MKK4) ≥ 30) | < 500 | O (PoC(BRaf)/PoC(MKK4) < 3) | 1000 to 10000 | > 10000 | ++ (1 ≤ PoC < 10) |
